Tests used:
Type in all cases: cell-based
mouse Oct1 = molecular target: T1, mouse Oct1 (Mus musculus, UniProt O08966); assay: TEA and ASP+ uptake inhibition in mOct1-transfected HEK293 cells
T1 sequence (O08966 1-556): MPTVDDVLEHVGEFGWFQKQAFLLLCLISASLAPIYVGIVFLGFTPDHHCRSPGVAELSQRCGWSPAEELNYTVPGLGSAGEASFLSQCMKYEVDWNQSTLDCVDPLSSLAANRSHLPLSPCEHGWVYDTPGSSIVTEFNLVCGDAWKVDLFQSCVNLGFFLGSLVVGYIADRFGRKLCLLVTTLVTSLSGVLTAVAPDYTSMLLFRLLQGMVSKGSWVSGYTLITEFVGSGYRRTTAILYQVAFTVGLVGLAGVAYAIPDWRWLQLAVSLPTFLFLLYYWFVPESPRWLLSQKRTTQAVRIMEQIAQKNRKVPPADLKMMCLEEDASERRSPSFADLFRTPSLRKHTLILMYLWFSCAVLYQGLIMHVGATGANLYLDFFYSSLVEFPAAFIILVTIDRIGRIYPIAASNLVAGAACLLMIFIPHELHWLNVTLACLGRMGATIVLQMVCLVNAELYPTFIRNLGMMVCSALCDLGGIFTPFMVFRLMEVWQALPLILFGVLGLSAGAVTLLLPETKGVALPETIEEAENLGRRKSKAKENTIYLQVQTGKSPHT

OCT2 [1] = molecular target: T2, OCT2 (Homo sapiens, UniProt O15244); assay: […]TEA uptake inhibition in OCT2-transfected HEK293 cells, Dixon plot
T2 sequence (O15244 1-555): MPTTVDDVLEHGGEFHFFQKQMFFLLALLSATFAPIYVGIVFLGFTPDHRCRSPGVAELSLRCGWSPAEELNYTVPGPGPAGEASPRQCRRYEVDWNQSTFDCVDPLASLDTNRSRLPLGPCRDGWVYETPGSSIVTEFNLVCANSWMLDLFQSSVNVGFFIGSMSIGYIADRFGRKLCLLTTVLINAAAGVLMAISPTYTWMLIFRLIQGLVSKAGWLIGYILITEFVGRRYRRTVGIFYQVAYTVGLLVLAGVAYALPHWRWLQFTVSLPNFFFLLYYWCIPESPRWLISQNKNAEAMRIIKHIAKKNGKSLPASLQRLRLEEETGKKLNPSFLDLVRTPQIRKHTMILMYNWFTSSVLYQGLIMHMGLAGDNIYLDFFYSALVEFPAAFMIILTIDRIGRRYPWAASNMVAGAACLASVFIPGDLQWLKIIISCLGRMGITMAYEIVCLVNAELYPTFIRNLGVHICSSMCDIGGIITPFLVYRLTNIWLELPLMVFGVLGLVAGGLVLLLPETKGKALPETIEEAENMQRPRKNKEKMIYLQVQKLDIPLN

mouse Oct2 = molecular target: T3, mouse Oct2 (Mus musculus, UniProt O70577); assay: TEA and ASP+ uptake inhibition in mOct2-transfected HEK293 cells
T3 sequence (O70577 1-553): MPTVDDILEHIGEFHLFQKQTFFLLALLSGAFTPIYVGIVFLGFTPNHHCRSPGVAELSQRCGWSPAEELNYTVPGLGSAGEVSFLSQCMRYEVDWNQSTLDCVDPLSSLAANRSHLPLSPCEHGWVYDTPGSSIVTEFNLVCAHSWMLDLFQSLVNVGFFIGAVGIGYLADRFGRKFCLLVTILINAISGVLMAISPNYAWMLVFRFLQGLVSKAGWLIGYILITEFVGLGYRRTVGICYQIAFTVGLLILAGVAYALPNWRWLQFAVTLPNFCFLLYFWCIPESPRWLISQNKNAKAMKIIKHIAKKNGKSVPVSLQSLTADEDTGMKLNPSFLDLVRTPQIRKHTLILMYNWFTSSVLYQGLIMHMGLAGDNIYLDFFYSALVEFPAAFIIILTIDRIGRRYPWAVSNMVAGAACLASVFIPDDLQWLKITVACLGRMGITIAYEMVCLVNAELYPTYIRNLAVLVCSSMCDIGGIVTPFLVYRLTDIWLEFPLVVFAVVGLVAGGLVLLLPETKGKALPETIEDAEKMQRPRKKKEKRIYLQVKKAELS

OCT2 [2] = molecular target: T2, OCT2; assay: […]TEA uptake in OCT2-transfected HEK293 cells

With `Cc1ccc(C(=O)Cn2c3c(sc2=N)CCCC3)cc1` [pifithrin-α] the “TEA and ASP+ uptake inhibition in mOct1-transfected HEK293 cells” value (mouse Oct1) was “pifithrin-α reduced uptake of TEA in Oct1 and Oct2 overexpressing HEK293 cells (Fig. 5A)”, the Ki (OCT2 [1]) was 3.04 µM and the “TEA and ASP+ uptake inhibition in mOct2-transfected HEK293 cells” value (mouse Oct2) was “pifithrin-α reduced uptake of TEA in Oct1 and Oct2 overexpressing HEK293 cells (Fig. 5A)”.
In the case of `CC[N+](CC)(CC)CC` [tetraethylammonium], the “[14C]TEA uptake in OCT2-transfected HEK293 cells” value (OCT2 [2]) is reported as “kinetic analyses were performed with and without pifithrin-α using varying concentrations of TEA as the OCT2 substrate”.
